Results on eight sequences are retold here after US10793599B2, “MPHOSPH1-derived peptide, and vaccine including same” (OncoTherapy Science, Inc., priority 2015, dated 2020).

Common to all, as to format: cell-based, human
In experiment [1] the test system is peptide-pulsed C1R-A11. The experiment can be described thus: In vitro CTL induction, IFN-gamma ELISPOT assay (HLA-A*11:01). The note with it: CD8 positive T cells of HLA-A*11:01-positive donors after three stimulations with peptide-pulsed DCs, against peptide-pulsed C1R-A11. As to the method:
(§1) Monocyte-derived dendritic cells (DCs) were used as the antigen-presenting cell to induce a specific cytotoxic T lymphocyte (CTL) response against peptides presented on human leukocyte antigens (HLAs). As already reported in literatures, DCs were generated in vitro (Nakahara S et al., Cancer Res 2003, 63(14): 4112-8). Specifically, peripheral-blood mononuclear cells (PBMCs) collected from healthy volunteers (HLA-A*11:01-positive) with the Ficoll-Paque plus solution (Pharmacia) were seeded in plastic tissue culture dishes (Corning) to let the monocytes in the PBMCs adhere to the dishes. This was cultured in the presence of 1000 IU/ml granulocyte macrophage colony-stimulating factor (R&D System) and 1000 IU/ml interleukin (IL)-4 (R&D System) for seven days. An AIM-V medium (Invitrogen) containing 5% inactivated AB-type serum (ABS) was used as the medium. DCs that were induced to differentiate from monocytes using the cytokines were pulsed with 20 micro-g/ml of each synthesized peptide (37 degrees C., three hours). Peptide pulsing was carried out in an AIM-V medium containing 3 micro-g/ml beta 2-microglobulin. These peptide-pulsed DCs were inactivated by X-ray irradiation (20 Gy), mixed in a 1:20 ratio with autologous CD8 positive T cells obtained by positive selection using the CD8 Positive Isolation Kit (Invitrogen) (1.5×10^4 DCs and 3×10^5 CD8 positive T cells), and cultured in a 48-well plate (Corning). Each well contained 0.5 ml of the 5% ABS/AIM-V medium, and IL-7 (R&D System) was added thereto (final concentration: 10 ng/ml). Two days after the start of the culture, IL-2 (Novartis) was added (final concentration: 20 IU/ml). On day 7 and day 14 of culture, the CD8 positive T cells were further stimulated with peptide-pulsed DCs. The DCs were prepared at the time of use by the same method as above. After day 21 (after three DC stimulations), IFN-gamma production against the peptide-pulsed C1R-A11 was confirmed using human interferon (IFN)-gamma enzyme-linked immunospot (ELISPOT) assay (Tanaka H et al., Br J Cancer 2001, 84(1): 94-9; Umano Y et al., Br J Cancer 2001, 84(8): 1052-7; Uchida N et al., Clin Cancer Res 2004, 10(24): 8577-86; Suda T et al., Cancer Sci 2006, 97(5): 411-9; Watanabe T et al., Cancer Sci 2005, 96(8): 498-506).
(§2) Peptide-pulsed C1R-A11 (1×10^4 cells/well) was prepared as the target cell. The IFN-gamma ELISPOT assay and IFN-gamma ELISA were performed according to the assay kit manufacturer's manual.

Experiment [2] deals with peptide-pulsed C1R-A33. The experiment can be described thus: In vitro CTL induction, IFN-gamma ELISPOT assay (HLA-A*33:03). The note with it: CD8 positive T cells of HLA-A*33:03-positive donors after three stimulations with peptide-pulsed DCs, against peptide-pulsed C1R-A33. As to the method: as §1, with “(HLA-A*33:03-positive)” for “(HLA-A*11:01-positive)”, “there” for “thereto”, “C1R-A33” for “C1R-A11”, “1052-7:” for “1052-7;”
(§3) Peptide-pulsed C1R-A33 (1×10^4 cells/well) was prepared as the target cell. The IFN-gamma ELISPOT assay and IFN-gamma ELISA assay were performed according to the assay kit manufacturer's manual.

The subject of experiment [3] is peptide-pulsed C1R-A33. Kind of experiment: IFN-gamma ELISA of CTL lines and CTL clones (HLA-A*33:03). Conditions: listed as MPHOSPH1-A33-10-57. As to the method: (§4) CTLs were propagated using methods similar to those reported by Riddell et al. (Walter E A et al., N Engl J Med 1995, 333(16): 1038-44; Riddell S R et al., Nat Med 1996, 2(2): 216-23). The CTLs were cultured in 25 ml 5% ABS/AIM-V medium together with two types of Mitomycin C-treated human B lymphoblastoid cell lines (5×10^6 cells/25 ml medium each) and an anti-CD3 antibody (final concentration: 40 ng/ml). On the day after beginning of the culturing, IL-2 (final concentration: 120 IU/ml) was added to the culture. On days 5, 8 and 11, the medium was changed to a 5% ABS/AIM-V medium containing IL-2 (final concentration: 30 IU/ml) (Tanaka H et al., Br J Cancer 2001, 84(1): 94-9; Umano Y et al., Br J Cancer 2001, 84(8): 1052-7; Uchida N et al., Clin Cancer Res 2004, 10(24): 8577-86; Suda T et al., Cancer Sci 2006, 97(5): 411-9; Watanabe T et al., Cancer Sci 2005, 96(8): 498-506).
After induction of CTLs in vitro, the CTLs were seeded onto 96 round-bottomed microtiter plates (Nalge Nunc International) at 1 cell/well or 10 cells/well. The CTLs were cultured with two types of Mitomycin C-treated human B lymphoblastoid cell lines (1×10^4 cells/well each) in a total of 150 micro-l/well 5% ABS/AIM-V medium with an anti-CD3 antibody (final concentration: 30 ng/ml) and IL-2 (final concentration: 125 IU/ml). Ten days later, 50 micro-l 5% ABS/AIM-V medium containing 500 IU/ml IL-2 was added to the culture.
as §3
On the technique in general: In an ELISA, binding on a coated surface is turned into a signal by an enzyme label.

The test system of experiment [4] is peptide-pulsed C1R-A11. The experiment can be described thus: IFN-gamma ELISA of CTL lines and CTL clones (HLA-A*11:01). The note with it: listed as MPHOSPH1-A11-9-1227. As to the method:
as §4
After induction of CTLs in vitro, the CTLs were seeded onto 96 round-bottomed microtiter plates (Nalge Nunc International) at 1 cell/well or 10 cells/well. The CTLs were cultured with two types of Mitomycin C-treated human B lymphoblastoid cell lines (1×10^4 cells/well each) in a total of 150 micro-1/well 5% ABS/AIM-V medium with an anti-CD3 antibody (final concentration: 30 ng/ml) and IL-2 (final concentration: 125 IU/ml). Ten days later, 50 micro-15% ABS/AIM-V medium containing 500 IU/ml IL-2 was added to the culture. […].
as §2

Entries after “also recorded” stand apart in the source; their conditions may differ.

Consider “CILGRLSEK (a peptide derived from MPHOSPH1) [SEQ ID NO: 27]”, for which the “peptide-specific IFN-gamma production (ELISPOT)” value with peptide-pulsed C1R-A11 [1] (listed as MPHOSPH1-A11-9-96) is given as “Peptide-specific IFN-gamma production was observed”.

In the case of “DLQKWREER (a peptide derived from MPHOSPH1) [SEQ ID NO: 119]”, in the experiment with peptide-pulsed C1R-A33 [2] (listed as MPHOSPH1-A33-9-1474), the “peptide-specific IFN-gamma production (ELISPOT)” value is on record as “Peptide-specific IFN-gamma production was observed”. Regarding “DYLQVCLRIR (a peptide derived from MPHOSPH1) [SEQ ID NO: 170]”, the “peptide-specific IFN-gamma production (ELISPOT)” value in the experiment with peptide-pulsed C1R-A33 [2] (listed as MPHOSPH1-A33-10-57) is on record as “Peptide-specific IFN-gamma production was observed”. For the same sequence, the “peptide-specific IFN-gamma production of CTL clone (ELISA)” value in the experiment on peptide-pulsed C1R-A33 [3] (CTL clone by limiting dilution, against C1R-A33 pulsed with the peptide) is reported as “showed a peptide-specific IFN-gamma production”. In the experiment on peptide-pulsed C1R-A33 [3] (CTL line against C1R-A33 pulsed with the peptide), the “IFN-gamma production by CTL line (ELISA)” value is “CTL lines that produce IFN-gamma in a peptide-specific manner were established; also recorded: observed”. In the case of “SIIGVNLATK (a peptide derived from MPHOSPH1) [SEQ ID NO: 53]”, the “peptide-specific IFN-gamma production (ELISPOT)” value with peptide-pulsed C1R-A11 [1] (listed as MPHOSPH1-A11-10-1675) is recorded as “Peptide-specific IFN-gamma production was observed”.

On to “SSARTQNLK (a peptide derived from MPHOSPH1) [SEQ ID NO: 12]”, for which the “peptide-specific IFN-gamma production of CTL clone (ELISA)” value in the experiment on peptide-pulsed C1R-A11 [4] (CTL clone by limiting dilution, against C1R-A11 pulsed with the peptide) is on record as “showed a peptide-specific IFN-gamma production”. In the experiment with peptide-pulsed C1R-A11 [4] (CTL line against C1R-A11 pulsed with the peptide), the “IFN-gamma production by CTL line (ELISA)” value is “CTL lines that produce IFN-gamma in a peptide-specific manner were established; also recorded: observed”. Besides, the “peptide-specific IFN-gamma production (ELISPOT)” value in the experiment on peptide-pulsed C1R-A11 [1] (listed as MPHOSPH1-A11-9-1227) was “Peptide-specific IFN-gamma production was observed”.

For the sequence “SSKKTYSLR (a peptide derived from MPHOSPH1) [SEQ ID NO: 48]”, the “peptide-specific IFN-gamma production (ELISPOT)” value with peptide-pulsed C1R-A33 [2] (listed as MPHOSPH1-A33-9-1663) is on record as “peptide-specific IFN-gamma production was not observed”. With “TINEFQNLK (a peptide derived from MPHOSPH1) [SEQ ID NO: 4]”, in the experiment with peptide-pulsed C1R-A11 [1] (listed as MPHOSPH1-A11-9-739), the “peptide-specific IFN-gamma production (ELISPOT)” value was “peptide-specific IFN-gamma production was not observed”. Take “TSSLIINNK (a peptide derived from MPHOSPH1) [SEQ ID NO: 5]”: the “peptide-specific IFN-gamma production (ELISPOT)” value in the experiment on peptide-pulsed C1R-A11 [1] (listed as MPHOSPH1-A11-9-762) was “Peptide-specific IFN-gamma production was observed”.
